Measurements from US4835251A, “Method of chain combination” (Genetech, Inc., priority 1986, dated 1989).
Ends that are not written are not given here.

Tested on: interpubic ligament
Assay: murine pubic symphysis assay (MPS)
Type: in vivo, mice
Conditions: for biological activity in the MPS assay (biological dose response comparison): estradiol-primed female mice, subcutaneous injection, ligament measured 18-20 hours later
Method: The human relaxin and human relaxin analogs were tested in bioassays. The murine pubic symphysis assay (MPS) uses Charles River albino CFW female mice weighing 18-20 g., J. St. Louis, Can. J. Physiol. Pharmacol. 59, 507-512 (1981). Estradiol priming solution is 5 μg estradiol 17β-cyclopentylpropionate in 0.1 ml peanut oil. Human relaxin dose solutions are at concentrations of 2.5, 5.0, 10.0, 20.0, 40.0, and 80.0 μg/ml in a 1% water solution of benzopurpurine 4B. When mice have been housed for at least six days in quarantine and weigh 18-20 g, each one is given a subcutaneous injection of estradiol priming solution. Exactly seven days later mice are injected subcutaneously with 0.2 ml of the appropriate human relaxin dose solution. Between 18 and 20 hours after the human relaxin injection the mice were sacrificed by cervical dislocation. The interpubic ligament is exposed and measured with a micrometer.
The rat uterine contractility in vitro bioassay measures human relaxin ability to relax smooth muscle in the presence of electrically stimulated contractions, J. St. Louis, (1981) Can. J. Physiol. Pharmacol. 59, 507-512. The murine pubic symphysis ligament in vivo bioassay measures relaxin's remodeling effect on connective tissue, Steinetz, B. G. et al. (1960) Endocrinology 67, 102. […] The MPS does responses indicate equipotence for natural human relaxin and H2(B2-33 A24) B Lys^4 B Ala^25, FIG. 3. […] All of the human analogues and natural sequence human relaxin are essentially indistinguishable in the MPS bioassay.

| Compound | biological activity in the MPS assay (biological dose response comparison) | MPS dose response curve, slope / parallelism relative to the other relaxins (mouse, in vivo) |
| --- | --- | --- |
| CC[C@H](C)[C@@H]1NC(=O)[C@H](C)NC(=O)[C@H]([C@@H](C)CC)NC(=O)[C@H](CCC(N)=O)NC(=O)[C@H](C)NC(=O)[C@H](CCCNC(=N)N)NC(=O)[C@H](C(C)C)NC(=O)[C@H](CC(C)C)NC(=O)[C@H](CCC(=O)O)NC(=O)[C@H](CCCNC(=N)N)NC(=O)CNC(=O)[C@@H](NC(=O)[C@H](CC(C)C)NC(=O)[C@H](CCCCN)NC(=O)[C@@H](NC(=O)[C@@H](NC(=O)[C@H](CCC(=O)O)NC(=O)[C@H](CCC(=O)O)NC(=O)[C@H](CCCCN)NC(=O)[C@H](Cc2c[nH]c3ccccc23)NC(=O)[C@H](CO)NC(=O)[C@@H](N)CC(=O)O)C(C)C)[C@@H](C)CC)CSSC[C@@H]2NC(=O)[C@@H](NC(=O)[C@H](CCCCN)NC(=O)[C@H](CC(N)=O)NC(=O)[C@H](C)NC(=O)[C@H](CC(C)C)NC(=O)[C@H](C)NC(=O)[C@H](CO)NC(=O)[C@H](Cc3ccc(O)cc3)NC(=O)[C@H](CC(C)C)NC(=O)[C@@H]3CCC(=O)N3)CSSC[C@H](NC(=O)CNC(=O)[C@H](C(C)C)NC(=O)[C@H](Cc3c[nH]cn3)NC2=O)C(=O)N[C@@H]([C@@H](C)O)C(=O)N[C@@H](CCCCN)C(=O)N[C@@H](CCCNC(=N)N)C(=O)N[C@@H](CO)C(=O)N[C@@H](CC(C)C)C(=O)N[C@@H](C)C(=O)N[C@@H](CCCNC(=N)N)C(=O)N[C@@H](Cc2ccccc2)C(=O)N[C@H](C(=O)O)CSSC[C@@H](C(=O)NCC(=O)N[C@@H](C)C(=O)N[C@@H](CO)C(=O)N[C@H](C(=O)N[C@@H](Cc2c[nH]c3ccccc23)C(=O)N[C@@H](CO)C(=O)N[C@@H](CCCCN)C(=O)N[C@@H](CCCNC(=N)N)C(=O)N[C@@H](CO)C(=O)N[C@@H](CC(C)C)C(=O)O)[C@@H](C)O)NC1=O | biological activity |  |
| porcine relaxin: Porcine relaxin, used for the standard curve in the RUC assay and compared in MPS (Relaxin B chain QSTNDFIKACGRELVRLWVEICGSVSWGRTAL; Relaxin A chain RMTLSEKCCQVGCIRKDIARLC; not fully specified; ends and bridges not checked; UniProt P01348 25-56; P01348 161-182, looked up) [reference compound] |  | non-parallel response |
| CC[C@H](C)[C@@H]1NC(=O)[C@H](C)NC(=O)[C@H]([C@@H](C)CC)NC(=O)[C@H](CCC(N)=O)NC(=O)[C@H](C)NC(=O)[C@H](CCCNC(=N)N)NC(=O)[C@H](C(C)C)NC(=O)[C@H](CC(C)C)NC(=O)[C@H](CCC(=O)O)NC(=O)[C@H](CCCNC(=N)N)NC(=O)CNC(=O)[C@@H](NC(=O)[C@H](CC(C)C)NC(=O)[C@H](CCCCN)NC(=O)[C@@H](NC(=O)[C@@H](NC(=O)[C@H](CCC(=O)O)NC(=O)[C@H](CCC(=O)O)NC(=O)[C@H](CCCCN)NC(=O)[C@H](Cc2c[nH]c3ccccc23)NC(=O)[C@@H](N)CO)C(C)C)[C@@H](C)CC)CSSC[C@@H]2NC(=O)[C@@H](NC(=O)[C@H](CCCCN)NC(=O)[C@H](CC(N)=O)NC(=O)[C@H](C)NC(=O)[C@H](CC(C)C)NC(=O)[C@H](C)NC(=O)[C@H](CO)NC(=O)[C@H](Cc3ccc(O)cc3)NC(=O)[C@H](CC(C)C)NC(=O)[C@@H]3CCC(=O)N3)CSSC[C@H](NC(=O)CNC(=O)[C@H](C(C)C)NC(=O)[C@H](Cc3c[nH]cn3)NC2=O)C(=O)N[C@@H]([C@@H](C)O)C(=O)N[C@@H](CCCCN)C(=O)N[C@@H](CCCNC(=N)N)C(=O)N[C@@H](CO)C(=O)N[C@@H](CC(C)C)C(=O)N[C@@H](C)C(=O)N[C@@H](CCCNC(=N)N)C(=O)N[C@@H](Cc2ccccc2)C(=O)N[C@H](C(=O)O)CSSC[C@@H](C(=O)NCC(=O)N[C@@H](C)C(=O)N[C@@H](CO)C(=O)N[C@H](C(=O)N[C@@H](Cc2c[nH]c3ccccc23)C(=O)N[C@@H](CO)C(=O)N[C@@H](CCCCN)C(=O)N[C@@H](CCCNC(=N)N)C(=O)N[C@@H](CO)C(=O)N[C@@H](CC(C)C)C(=O)O)[C@@H](C)O)NC1=O | biological activity |  |
